This is an account of results in PubChem BioAssay (NCI).

Test systems include BT-549 breast; MCF7 breast; MDA-MB-435; PC-3 prostate; MDA-N.
Experiment in all cases: growth of human tumour cells (NCI), 48 h

Each structure is given as a SMILES string.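 Each compound was tested at five concentrations against cells in 96-well plates for 48 hours. Abbreviation: GI50, concentration required for 50% inhibition of growth. TGI: total growth inhibition.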

Consider `CCCCCCCC/C=C/CCCCCCCC(=O)OC[C@H]1O[C@@H](n2ccc(N)nc2=O)C(F)(F)[C@@H]1O`, for which the TGI is over 60.6 µM with BT-549 breast, over 100 µM in the experiment with MCF7 breast, over 100 µM in the experiment with MDA-MB-435 and over 100 µM with PC-3 prostate. Besides, the results for the GI50 in the experiment with MCF7 breast, in the experiment with MDA-MB-435 and in the experiment with PC-3 prostate were under 0.01 µM, under 0.0266 µM and 0.752 µM, respectively.
`CCOC(=O)c1c(C)n(Cc2ccc(Cl)cc2Cl)c2c1c(CN(C)C)c(O)c1[nH]cnc12`: in the experiment on BT-549 breast, the GI50 is 23.6 µM and the TGI was 48.5 µM. In the experiment with MDA-MB-435, the GI50 was 23.6 µM and the TGI is 51.1 µM.
On to `NCC1Nc2ccccc2[C@@H](O)C1O` (stereo partly specified), for which the TGI in the experiment on MCF7 breast, in the experiment with MDA-MB-435, with MDA-N and in the experiment on PC-3 prostate was over 100 µM in each case.
`Clc1nc(Cl)c(Cl)c(-c2ccccc2)n1`: the TGI in the experiment on BT-549 breast came to 7.81 µM; in the experiment on MCF7 breast it was 48.7 µM; in the experiment on MDA-MB-435, 28.7 µM; with PC-3 prostate, 39.3 µM.
For `COc1ccc(-c2n[nH]nc2-c2cc(OC)c(OC)c(OC)c2)cc1`, the GI50 was under 0.01 µM in the experiment with MCF7 breast, under 0.01 µM with MDA-MB-435 and 0.0638 µM in the experiment with PC-3 prostate. Further, the TGI in the experiment with MCF7 breast is over 80.7 µM; in the experiment on MDA-MB-435, under 0.01 µM; with PC-3 prostate, over 100 µM.
As to `Oc1cccnc1CN1CCCCC1`, the TGI in the experiment with BT-549 breast, in the experiment with MCF7 breast, in the experiment on MDA-MB-435, with MDA-N and in the experiment with PC-3 prostate was over 100 µM throughout.
In the case of `COc1ccc(Nc2c3ccccc3nc3occc23)cc1`, the GI50 with BT-549 breast was 18.4 µM; in the experiment with MCF7 breast, 0.682 µM; in the experiment with MDA-MB-435, 0.171 µM; in the experiment with PC-3 prostate, 3.25 µM. Further, the values for the TGI in the experiment with BT-549 breast, in the experiment with MCF7 breast and in the experiment on PC-3 prostate were 45.8 µM, 36.1 µM and over 39.5 µM, respectively.
Consider `Cc1cc(S(=O)(=O)Nc2nnc(-c3ccccc3)c(-c3ccccc3)n2)c(SCC(N)=O)cc1Cl`, for which the GI50 in the experiment on BT-549 breast is 27.4 µM; in the experiment on MCF7 breast it was 36.4 µM; in the experiment on MDA-MB-435, 51.5 µM; with PC-3 prostate, 94.8 µM. The TGI in the experiment with BT-549 breast is 90.6 µM; in the experiment with MCF7 breast, over 100 µM; in the experiment on MDA-MB-435 it was over 100 µM; with PC-3 prostate it was over 100 µM.
With `COc1cc(/C=C/c2cc(/C=C/c3ccc(O)c(OC)c3)n(C(=O)Nc3ccc(F)c(Cl)c3)n2)ccc1O`, the GI50 with BT-549 breast is 0.921 µM; in the experiment on MCF7 breast, 0.185 µM; with MDA-MB-435 it was 0.0223 µM; in the experiment on PC-3 prostate, 0.365 µM. The TGI in the experiment on BT-549 breast stood at 7.98 µM; in the experiment on MCF7 breast, 1.51 µM; in the experiment on MDA-MB-435, 0.102 µM; in the experiment with PC-3 prostate, 6.58 µM.
Take `NS(=O)(=O)c1ccc(NC2(C(=O)O)CCCC2)cc1`: the TGI in the experiment with BT-549 breast, in the experiment on MCF7 breast, in the experiment on MDA-MB-435, in the experiment on MDA-N and in the experiment on PC-3 prostate was over 100 µM throughout.
With `O=C1OC(C(O)CO)C(=O)C1=O` (stereo unspecified), the GI50 in the experiment on BT-549 breast is 4320 µM; with MCF7 breast, 2350 µM; in the experiment with MDA-MB-435, 2120 µM; in the experiment on PC-3 prostate, 4410 µM. The TGI in the experiment on BT-549 breast is over 10000 µM; in the experiment on MCF7 breast, 5860 µM; in the experiment with MDA-MB-435, 4290 µM; in the experiment on PC-3 prostate, over 10000 µM.
For `Clc1ccc(C2=Nn3c(COc4ccccc4Cl)nnc3SC2)c(Cl)c1`, the GI50 is 18.8 µM with BT-549 breast, 11 µM in the experiment with MCF7 breast, 20.1 µM with MDA-MB-435 and 37.2 µM with PC-3 prostate. In addition, the TGI in the experiment with BT-549 breast is 54.2 µM; in the experiment with MCF7 breast, over 100 µM; with MDA-MB-435, 84.5 µM; with PC-3 prostate it was over 100 µM.
For `COc1ccc(Cn2cc3c(c2-c2ccccc2)CC(C)(C)c2cnoc2-3)cc1`, the GI50 in the experiment on MCF7 breast is 0.87 µM; in the experiment with MDA-MB-435 it was 0.279 µM; in the experiment on PC-3 prostate, 3.27 µM. For the same compound, the figures for the TGI with MCF7 breast, with MDA-MB-435 and with PC-3 prostate were over 100 µM, 1.01 µM and over 100 µM, respectively.
Consider `C=C1C(=O)O[C@@H]2/C=C(\C)CC/C=C(/COC(C)=O)C[C@@H](OC(C)=O)[C@@H]12`, for which the TGI with BT-549 breast was 16.7 µM; in the experiment with MCF7 breast, 17 µM; in the experiment with MDA-MB-435, 54.4 µM; in the experiment with MDA-N, 20.5 µM; in the experiment with PC-3 prostate, 36.4 µM.
With `N=C1C(c2nc3ccccc3s2)=C(O)CN1c1cc(C(F)(F)F)ccc1Cl`, the GI50 with BT-549 breast is 43.4 µM; in the experiment with MCF7 breast, 16.9 µM; with MDA-MB-435 it was 4.14 µM; in the experiment with PC-3 prostate, 5.82 µM. The TGI with BT-549 breast was over 100 µM; in the experiment with MCF7 breast it was 92.1 µM; in the experiment on MDA-MB-435 it was 36.1 µM; in the experiment on PC-3 prostate it was 49.9 µM.
As to `COc1cc(-c2ccc3c(c2)NC(=O)/C3=C\c2ccc[nH]2)ccc1O`, the GI50 with BT-549 breast is 0.0968 µM; in the experiment on MCF7 breast, 0.0888 µM; in the experiment on PC-3 prostate it was 0.0228 µM. The TGI with BT-549 breast, in the experiment on MCF7 breast and with PC-3 prostate was over 50 µM throughout.
Take `O=C(N/N=C/c1ccc(Cl)cc1)c1ccc(C(F)(F)F)nc1Nc1cccc(C(F)(F)F)c1`: the GI50 in the experiment on BT-549 breast is 2.72 µM; in the experiment on MCF7 breast, 2.26 µM; in the experiment on MDA-MB-435 it was 3.17 µM; with PC-3 prostate, 2.05 µM. The TGI with BT-549 breast turned out to be 11.7 µM; in the experiment with MCF7 breast, 10.8 µM; in the experiment with MDA-MB-435, 20.1 µM; in the experiment with PC-3 prostate, 8.03 µM.
In the case of `CN1c2ccc(Cl)cc2C(=O)NC1c1ccc([N+](=O)[O-])s1` (stereo unspecified), the TGI in the experiment with BT-549 breast is 34.8 µM; in the experiment with MCF7 breast it was 44.6 µM; in the experiment with MDA-MB-435 it was 31.4 µM; with MDA-N, 31.7 µM; in the experiment with PC-3 prostate, 36.1 µM.
In the same order, the values of `NP(=O)(Oc1c2occc2cc2ccc(=O)oc12)N(CCCl)CCCl` (stereo unspecified) are over 100 µM, over 100 µM, over 100 µM, over 100 µM and over 100 µM.
With `CC(=O)CSCc1ccccn1`, the TGI in the experiment on BT-549 breast, with MDA-MB-435, in the experiment on MDA-N and in the experiment with PC-3 prostate was over 100 µM each time.
